Test results as given in patent US20170239351A1, “Therapeutic Combinations of a BTK Inhibitor, a PI3K Inhibitor, a JAK-2 Inhibitor, a PD-1 Inhibitor, and/or a PD-L1 Inhibitor” (Acerta Pharma B.V., priority 2014, published 2017).

Legend:
[1] = tested on: B cell receptor; assay: Whole blood B cell receptor signalling assay (anti-IgD, CD69 on CD19+ B cells); assay type: cell-based; details: 2 h incubation, anti-human IgD 18 h
Procedure: Blood from four healthy donors was incubated for 2 hours with the compounds shown over a concentration range, and then stimulated with anti-human IgD [10 μg/mL] for 18 hours. The mean fluorescent intensity (MFI) of CD69 (and CD86, data not shown) on gated CD19+ B cells was measured by flow cytometry.

[2] = tested on: KPC derived mouse pancreatic cancer cells; assay: Orthotopic pancreatic cancer model (KPC-derived cells); assay type: in vivo, C57BL/6 mice; details: 15 mg/kg oral of each drug
Procedure: Orthotopic pancreatic cancer models in mice are clinically relevant, benefit from tissue site-specific pathology, and allow for study of metastasis. Qiu and Su, Methods Mol. Biol. 2013, 980, 215-223. A cell line derived from KrasG12D; Trp53R172H; Pdx1-Cre (KPC) mice was orthotopically implanted into the head of the pancreas after 35 passages. Based on the mice background from where the cell lines were generated, 1×10^6 cells were injected in C57BL/6 mice. Throughout the experiment, animals were provided with food and water ad libitum and subjected to a 12-h dark/light cycle. Animal studies were performed in accordance with the U.S. Public Health Service “Guidelines for the Care and Use of Laboratory Animals” (IACUC). After euthanization, pancreatic tumors were dissected out, weighed and single cell suspensions were prepared for flow cytometry analysis.
Results of the experiments are shown in FIG. 110, which illustrates tumor growth suppression in the orthotopic pancreatic cancer model. The statistical p-value (presumption against null hypothesis) is shown for each tested single active pharmaceutical ingredient and for the combination against the vehicle.
In this study, KrasG12D;Trp53R172H; Pdx1-Cre (KPC) derived mouse pancreatic cancer cells (10,000 cells) were injected into the pancreases of 24 female mice. After one week of expansion, drug treatment was started in mice developing pancreatic tumors.
Single cell suspensions from tumor samples were prepared as follows. Mouse tumor tissue was collected and stored in PBS/0.1% soybean trypsin inhibitor prior to enzymatic dissociation. […] Following surface staining, samples were acquired on a BD Fortessa and analyzed using FlowJo (Treestar) software.

[3] = tested on: human platelet-mediated thrombosis; design: species or system VWF HA1 mice (human platelets); details: in vivo
Procedure: […]. Injury to the vessel wall of arterioles ([…] diameter) was performed using a pulsed nitrogen dye laser (440 nm, Photonic Instruments) applied through a 20× water-immersion Olympus objective (LUMPlanF1, 0.5 numerical aperature (NA)) of a Zeiss Axiotech vario microscope. Human platelet and wall interactions were visualized by fluorescence microscopy using a system equipped with a Yokogawa CSU-22 spinning disk confocal scanner, iXON EM camera, and 488 nm and 561 nm laser lines to detect BCECF-labeled and rhodamine-labeled platelets, respectively (Revolution XD, Andor Technology). The extent of thrombus formation was assessed for 2 minutes after injury and the area (μm^2) of coverage determined (Image IQ, Andor Technology).
. The BTK inhibitor-treated human platelets were fluorescently labeled and infused continuously through a catheter inserted into the femoral artery. Their behavior in response to laser-induced vascular injury was monitored in real time using two-channel confocal intravital microscopy (Furie and Furie, J. Clin. Invest. 2005, 115(12), 2255-62). Upon induction of arteriole injury untreated platelets rapidly formed thrombi with an average thrombus size of […] (mean±s.e.m.), as shown in FIG. 124 and FIG. 125. […]. […]. […]

[4] = tested on: CD4^+ T cells; assay: Th17 and Treg development from CD4+ T cells; assay type: cell-based
Procedure: Enriched CD4^+ T cells are plated on 24-well culture dishes that have been precoated 2 hr with 250 μL anti-TCRβ (0.5 μg/mL) plus anti-CD28 (5 μg/mL) at 37° C. in PBS. The cells are then supplemented with media containing BTK inhibitors along with the skewing cytokines as indicated in the following. The Th17 and Treg cultures are grown for 4 days before analysis. The cells are maintained for an additional 3 days with skewing cytokines (Th17; 20 ng/mL IL-6, 0.5 ng/mL TGF-β, 5 μg/mL IL-4, 5 μg/mL IFN-γ and Treg; 0.5 ng/mL TGF-β, 5 μg/mL IL-4, 5 μg/mL IFN-γ) and are supplemented with IL2 as a growth factor.

[5] = tested on: NK cells; assay: Antibody-stimulated NK cell degranulation (CD107a), flow cytometry; assay type: cell-based, human; details: DHL-4 target cells
[6] = tested on: regulatory T cell (Treg) development; assay: Regulatory T cell (Treg) development; assay type: cell-based
[7] = tested on: Raji cells; assay: Antibody-dependent NK cell-mediated cytotoxicity, chromium release assay, Raji cells; assay type: cell-based; details: 1 μM, rituximab, effector:target 25:1, 4 hours
[8] = tested on: Raji cells; assay: Rituximab ADCC assay (51Cr release), healthy donor NK cells; assay type: cell-based, human; details: 1 μM
[9] = tested on: human platelets; assay: GPVI (convulxin-induced) platelet aggregation; assay type: cell-based
Procedure: GPVI platelet aggregation was measured for Formula (XVIII) and Formula (XX-A) (ibrutinib). Blood was obtained from untreated humans, and platelets were purified from […] by centrifugation. Cells were resuspended to a final concentration of 350,000/μL in buffer containing 145 mmol/L NaCl, 10 mmol/L HEPES, 0.5 mmol/L Na2HPO4, 5 mmol/L KCl, 2 mmol/L MgCl2, 1 mmol/L CaCl2, and 0.1% glucose, at pH 7.4. Stock solutions of Convulxin (CVX) GPVI were prepared on the day of experimentation and added to platelet suspensions 5 minutes (37° C., 1200 rpm) before the induction of aggregation. Aggregation was assessed with a Chronolog Lumi-Aggregometer (model 540 VS; Chronolog, Havertown, Pa.) and permitted to proceed for 6 minutes after the addition of agonist. The results are reported as maximum percent change in light transmittance from baseline with platelet buffer used as a reference.
In FIG. 129, the results of CVX-induced (250 ng/mL) human platelet aggregation results before and 15 minutes after administration of the BTK inhibitors to 6 healthy individuals are shown.

[10] = tested on: CD8^+ T cell function; assay: Cytotoxicity assay for CD8+ T cell function; assay type: cell-based; details: relative to vehicle
[11] = tested on: CD8^+ T cell function; assay: IFN-γ level measurements for CD8+ T cell function; assay type: cell-based; details: relative to vehicle
[12] = tested on: CD8^+ T cell; assay: CD8+ T cell viability; assay type: cell-based
[13] = tested on: T helper 17 (Th17) cells; assay: Effect on T helper 17 (Th17) cells; assay type: cell-based
[14] = tested on: CD8^+ T cells; assay: Cytotoxic T cell (CTL) assay; assay type: cell-based; details: 500 nM
Procedure: Without being bound by any theory, CD8^+ T cells have two primary effector functions: (1) produce large amounts of IFN-γ (which activates macrophages), and (2) cytolytic activity. […] The targets were B lymphoblasts from lipopolysaccharide (LPS) treated cultures. The assay was performed by incubating different ratios of effectors:targets for 4 hours.

[15] = tested on: CD8^+ T cells; assay: CD8+ T cell viability (LIVE/DEAD staining, 4 days); assay type: cell-based
Procedure: Total T cells were plated on anti-TCR and anti-CD28 coated wells in the presence of both BTK inhibitors. Neutral culture conditions were used that will not polarize T cells to a helper lineage. The cells are grown for 4 days and are then stained with anti-CD4, anti-CD8 and LIVE/DEAD reagent to determine if the drugs have selective effects on either the CD4^+ or CD8^+ cells. Statistical significance was calculated using the Mann Whitney T-test. […]

[16] = tested on: relapsed/refractory CLL; details: cited from earlier work

**Q.** With C=CC(=O)Nc1cccc(Nc2nc(Nc3ccc(OCCOC)cc3)ncc2F)c1 [CC-292] as the compound, how does the EC50 [1] read?
**A.** 0.121 µM

**Q.** With C[C@H](Nc1ncnc2[nH]cnc12)c1cc2ccc(F)cc2nc1-c1ccccn1 [Formula (IX), (S)—N-(1-(7-fluoro-2-(pyridin-2-yl)quinolin-3-yl)ethyl)-9H-purin-6-amine, reference compound] as the compound, how does the “tumor volume versus vehicle” value [2] read?
**A.** statistically significant reductions in tumor volume

**Q.** For C=CC(=O)N1CCC[C@@H](n2nc(-c3ccc(Oc4ccccc4)cc3)c3c(N)ncnc32)C1 [ibrutinib, 1-[(3R)-3-[4-amino-3-(4-phenoxyphenyl)-1H-pyrazolo[3,4-d]pyrimidin-1-yl]piperidin-1-yl]prop-2-en-1-one, reference compound], which “effect on thrombus formation” value [3] is on record?
**A.** interfere with thrombus formation

**Q.** And the “effect on Th17 and Treg development” value [4]?
**A.** profound inhibition of Th17 cells and an increase in Treg development

**Q.** And the “inhibition of rituximab-stimulated NK cell degranulation” value [5]?
**A.** ~50%

**Q.** What about the “effect on Treg development” value [6] of the same compound?
**A.** strongly increases Treg development

**Q.** And the “antibody-dependent NK cell-mediated cytotoxicity (percent lysis of tumor cells)” value [7]?
**A.** antagonizes antibody-dependent NK cell-mediated cytotoxicity

**Q.** And the “effect on rituximab-mediated ADCC” value [8]?
**A.** strongly inhibited

**Q.** What about the GPVI platelet aggregation [9] of the same compound?
**A.** significantly inhibits GPVI platelet aggregation

**Q.** And the “CD8+ T cell function as measured by % cytotoxicity” value [10]?
**A.** affects CD8^+ T cell function

**Q.** What about the “CD8+ T cell function as measured by IFN-γ level” value [11] of the same compound?
**A.** affects CD8^+ T cell function

**Q.** And the “effect on CD8+ T cell viability” value [12]?
**A.** strongly affects CD8^+ T cell viability at higher doses

**Q.** And the “effect on Th17 cells” value [13]?
**A.** strongly inhibits Th17 cells

**Q.** And the “CD8^+ T cell function as % cytotoxicity” value [14]?
**A.** affects CD8^+ T cell function

**Q.** What about the “CD8^+ T cell function as IFN-γ levels” value [14] of the same compound?
**A.** significant loss of function

**Q.** And the “effect on CD8^+ T cell viability” value [15]?
**A.** strong, negative effect on CD8^+ T cell viability

**Q.** With “obinutuzumab: type II glycoengineered CD20 monoclonal antibody” as the compound, how does the “Grade 3 IRRs” value ([16]; Phase 1 portion (n=13)) read?
**A.** 15%

**Q.** And the “patients who experienced IRRs” value ([16]; Phase 1 portion (n=13))?
**A.** all patients

**Q.** What about the “IRR cases developing symptoms of hypotension” value ([16]; Phase 2 portion) of the same compound?
**A.** 60%

**Q.** And the “hypotension cases that were Grade 3 reactions” value ([16]; Phase 2 portion)?
**A.** 25%

**Q.** And the “patients who developed IRR” value ([16]; Phase 2 portion)?
**A.** 95%

**Q.** And the response rate ([16]; monotherapy, Phase 1, previously treated CLL)?
**A.** 62%
